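Step 1: Grow cells in 96-well plates. Step 2: Expose to compound for 48 hours at 5 concentrations. Step 3: Interpolate endpoints linearly; if unreached, use highest concentration. GI50: concentration for 50% inhibition of growth. TGI: concentration producing complete growth inhibition.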 Where a SMILES comes first, the peptide text is derived from it. Bridges are numbered along the chain shown (N, C = ends). [ ]: non-standard residue; d: D form. The star is where a group is joined. Phe(3,5-F2) = N[C@@H](Cc1cc(F)cc(F)c1)C(=O)O; Pro(4R-Me) = C[C@H]1CN[C@H](C(=O)O)C1; aThr = C[C@H](O)[C@H](N)C(=O)O; Pip = O=C(O)[C@@H]1CCCCN1; X7 = CCC/C=C/C=C/C(=O)*
Assays:
Experiment in all cases: growth of human tumour cells (NCI), 48 h
786-0 renal = test system: 786-0 renal
A498 renal = test system: A498 renal
A549 NSCLC = test system: A549 NSCLC
ACHN renal = test system: ACHN renal
BT-549 breast = test system: BT-549 breast
CAKI-1 renal = test system: CAKI-1 renal
CCRF-CEM leukemia = test system: CCRF-CEM leukemia
COLO 205 colon = test system: COLO 205 colon
DU-145 prostate = test system: DU-145 prostate
EKVX NSCLC = test system: EKVX NSCLC
HCC-2998 colon = test system: HCC-2998 colon
HCT-116 colon = test system: HCT-116 colon
HCT-15 colon = test system: HCT-15 colon
HL-60(TB) leukemia = test system: HL-60(TB) leukemia
HOP-62 NSCLC = test system: HOP-62 NSCLC
HOP-92 NSCLC = test system: HOP-92 NSCLC
HS 578T breast = test system: HS 578T breast
HT29 colon = test system: HT29 colon
IGROV1 ovarian = test system: IGROV1 ovarian
K-562 leukemia = test system: K-562 leukemia
KM12 colon = test system: KM12 colon
LOX IMVI melanoma = test system: LOX IMVI melanoma
M14 melanoma = test system: M14 melanoma
MALME-3M melanoma = test system: MALME-3M melanoma
MCF7 breast = test system: MCF7 breast
MDA-MB-231 breast = test system: MDA-MB-231 breast
MDA-MB-435 = test system: MDA-MB-435
MOLT-4 leukemia = test system: MOLT-4 leukemia
NCI-H226 lung = test system: NCI-H226 lung
NCI-H23 lung = test system: NCI-H23 lung
NCI-H460 lung = test system: NCI-H460 lung
NCI-H522 lung = test system: NCI-H522 lung
NCI/ADR-RES ovarian = test system: NCI/ADR-RES ovarian
OVCAR-3 ovarian = test system: OVCAR-3 ovarian
OVCAR-4 ovarian = test system: OVCAR-4 ovarian
OVCAR-5 ovarian = test system: OVCAR-5 ovarian
OVCAR-8 ovarian = test system: OVCAR-8 ovarian
PC-3 prostate = test system: PC-3 prostate
RPMI-8226 leukemia = test system: RPMI-8226 leukemia
RXF 393 renal = test system: RXF 393 renal
SF-268 CNS = test system: SF-268 CNS
SF-295 CNS = test system: SF-295 CNS
SF-539 CNS = test system: SF-539 CNS
SK-MEL-2 melanoma = test system: SK-MEL-2 melanoma
SK-MEL-28 melanoma = test system: SK-MEL-28 melanoma
SK-MEL-5 melanoma = test system: SK-MEL-5 melanoma
SK-OV-3 ovarian = test system: SK-OV-3 ovarian
SN12C renal = test system: SN12C renal
SNB-19 CNS = test system: SNB-19 CNS
SNB-75 CNS = test system: SNB-75 CNS
SR leukemia = test system: SR leukemia
SW-620 colon = test system: SW-620 colon
T-47D breast = test system: T-47D breast
TK-10 renal = test system: TK-10 renal
U251 CNS = test system: U251 CNS
UACC-257 melanoma = test system: UACC-257 melanoma
UACC-62 melanoma = test system: UACC-62 melanoma
UO-31 renal = test system: UO-31 renal

## CCC/C=C/C=C/C(=O)N[C@@H](Cc1cc(F)cc(F)c1)C(=O)N[C@@H]1C(=O)N2CCC[C@H]2C(=O)N2CCCC[C@H]2C(=O)N[C@@H](C)C(=O)N2C[C@H](C)C[C@H]2C(=O)O[C@H]1C (X7-[Phe(3,5-F2)][aThr]P[Pip]A[Pro(4R-Me)]; ester 2-C)
786-0 renal
  GI50: 842 nM
  TGI: 31000 nM
A498 renal
  GI50: 2430 nM
  TGI: 28400 nM
A549 NSCLC
  GI50: 506 nM
  TGI: > 58500 nM
ACHN renal
  GI50: 1120 nM
  TGI: 28700 nM
BT-549 breast
  GI50: 370 nM
  TGI: 3400 nM
CAKI-1 renal
  GI50: 415 nM
  TGI: 12500 nM
CCRF-CEM leukemia
  GI50: 411 nM
  TGI: 14500 nM
COLO 205 colon
  GI50: 286 nM
  TGI: 850 nM
DU-145 prostate
  GI50: 619 nM
  TGI: > 66700 nM
EKVX NSCLC
  GI50: 491 nM
  TGI: 26200 nM
HCC-2998 colon
  GI50: 463 nM
  TGI: 4930 nM
HCT-116 colon
  GI50: 420 nM
  TGI: 11400 nM
HCT-15 colon
  GI50: 482 nM
  TGI: 11000 nM
HL-60(TB) leukemia
  GI50: 404 nM
  TGI: 5830 nM
HOP-62 NSCLC
  GI50: 516 nM
  TGI: 16900 nM
HOP-92 NSCLC
  GI50: 313 nM
  TGI: 3740 nM
HS 578T breast
  GI50: 594 nM
  TGI: 17400 nM
HT29 colon
  GI50: 586 nM
  TGI: 4160 nM
IGROV1 ovarian
  GI50: 1780 nM
  TGI: 23700 nM
K-562 leukemia
  GI50: 402 nM
  TGI: > 100000 nM
KM12 colon
  GI50: 1810 nM
  TGI: 29000 nM
LOX IMVI melanoma
  GI50: 433 nM
  TGI: 12800 nM
M14 melanoma
  GI50: 461 nM
  TGI: 5230 nM
MALME-3M melanoma
  GI50: 1010 nM
  TGI: 14000 nM
MCF7 breast
  GI50: 354 nM
  TGI: 13600 nM
MDA-MB-231 breast
  GI50: 409 nM
  TGI: 3360 nM
MDA-MB-435
  GI50: 412 nM
  TGI: 5710 nM
MOLT-4 leukemia
  GI50: 1110 nM
  TGI: > 44000 nM
NCI-H226 lung
  GI50: 547 nM
  TGI: 7970 nM
NCI-H23 lung
  GI50: 389 nM
  TGI: 13400 nM
NCI-H460 lung
  GI50: 500 nM
  TGI: 14100 nM
NCI-H522 lung
  GI50: 462 nM
  TGI: 13000 nM
NCI/ADR-RES ovarian
  GI50: 2170 nM
  TGI: 16100 nM
OVCAR-3 ovarian
  GI50: 596 nM
  TGI: 17100 nM
OVCAR-4 ovarian
  GI50: 395 nM
  TGI: 19300 nM
OVCAR-5 ovarian
  GI50: 583 nM
  TGI: 6130 nM
OVCAR-8 ovarian
  GI50: 414 nM
  TGI: > 46800 nM
PC-3 prostate
  GI50: 367 nM
  TGI: 17200 nM
RPMI-8226 leukemia
  GI50: 339 nM
  TGI: 4760 nM
RXF 393 renal
  GI50: 1500 nM
  TGI: 8290 nM
SF-268 CNS
  GI50: 957 nM
  TGI: > 46400 nM
SF-295 CNS
  GI50: 358 nM
  TGI: 2030 nM
SF-539 CNS
  GI50: 744 nM
  TGI: 13500 nM
SK-MEL-2 melanoma
  GI50: 422 nM
  TGI: 5100 nM
SK-MEL-28 melanoma
  GI50: 987 nM
  TGI: 14100 nM
SK-MEL-5 melanoma
  GI50: 509 nM
  TGI: 3310 nM
SK-OV-3 ovarian
  GI50: 499 nM
  TGI: 12800 nM
SN12C renal
  GI50: 419 nM
  TGI: 15500 nM
SNB-19 CNS
  GI50: 405 nM
  TGI: 35200 nM
SNB-75 CNS
  GI50: 313 nM
  TGI: 12700 nM
SR leukemia
  GI50: 892 nM
  TGI: 26400 nM
SW-620 colon
  GI50: 704 nM
  TGI: > 46100 nM
T-47D breast
  GI50: 453 nM
  TGI: 13900 nM
TK-10 renal
  GI50: 1050 nM
  TGI: 43700 nM
U251 CNS
  GI50: 451 nM
  TGI: 16500 nM
UACC-257 melanoma
  GI50: 356 nM
  TGI: 4160 nM
UACC-62 melanoma
  GI50: 522 nM
  TGI: 6370 nM
UO-31 renal
  GI50: 1080 nM
  TGI: 27500 nM

## CN1CCN(Cc2ccc(NC(=O)c3cncc(C#Cc4cnc5ccc(OCC6COC6)nn45)c3)cc2C(F)(F)F)CC1
786-0 renal
  GI50: 272 nM
  TGI: 847 nM
A498 renal
  GI50: 483 nM
  TGI: 1110 nM
A549 NSCLC
  GI50: 174 nM
  TGI: 655 nM
ACHN renal
  GI50: 167 nM
  TGI: 605 nM
BT-549 breast
  GI50: 538 nM
  TGI: 1180 nM
CAKI-1 renal
  GI50: 117 nM
  TGI: 432 nM
CCRF-CEM leukemia
  GI50: 184 nM
  TGI: 3880 nM
COLO 205 colon
  GI50: 103 nM
  TGI: 222 nM
DU-145 prostate
  GI50: 177 nM
  TGI: 573 nM
EKVX NSCLC
  GI50: 273 nM
  TGI: 954 nM
HCC-2998 colon
  GI50: 310 nM
  TGI: 1110 nM
HCT-116 colon
  GI50: 91.1 nM
  TGI: 306 nM
HCT-15 colon
  GI50: 153 nM
  TGI: 568 nM
HL-60(TB) leukemia
  GI50: 121 nM
  TGI: 412 nM
HOP-62 NSCLC
  GI50: 175 nM
  TGI: 589 nM
HOP-92 NSCLC
  GI50: 28 nM
  TGI: 166 nM
HS 578T breast
  GI50: 235 nM
  TGI: 1320 nM
HT29 colon
  GI50: 166 nM
  TGI: 687 nM
IGROV1 ovarian
  GI50: 142 nM
  TGI: 583 nM
K-562 leukemia
  GI50: 5 nM
  TGI: 5120 nM
KM12 colon
  GI50: 5 nM
  TGI: 451 nM
LOX IMVI melanoma
  GI50: 165 nM
  TGI: 620 nM
M14 melanoma
  GI50: 88.9 nM
  TGI: 205 nM
MALME-3M melanoma
  GI50: 89.5 nM
  TGI: 314 nM
MCF7 breast
  GI50: 96 nM
  TGI: 528 nM
MDA-MB-231 breast
  GI50: 95 nM
  TGI: 445 nM
MDA-MB-435
  GI50: 144 nM
  TGI: 615 nM
MOLT-4 leukemia
  GI50: 129 nM
  TGI: 941 nM
NCI-H226 lung
  GI50: 50.4 nM
  TGI: 709 nM
NCI-H23 lung
  GI50: 151 nM
  TGI: 693 nM
NCI-H460 lung
  GI50: 189 nM
  TGI: 676 nM
NCI-H522 lung
  GI50: 97.7 nM
  TGI: 226 nM
NCI/ADR-RES ovarian
  GI50: 195 nM
  TGI: 1260 nM
OVCAR-3 ovarian
  GI50: 214 nM
  TGI: 705 nM
OVCAR-4 ovarian
  GI50: 193 nM
  TGI: 979 nM
OVCAR-5 ovarian
  GI50: 222 nM
  TGI: 812 nM
OVCAR-8 ovarian
  GI50: 163 nM
  TGI: 600 nM
PC-3 prostate
  GI50: 244 nM
  TGI: 1450 nM
RPMI-8226 leukemia
  GI50: 269 nM
  TGI: 1260 nM
RXF 393 renal
  GI50: 159 nM
  TGI: 457 nM
SF-268 CNS
  GI50: 189 nM
  TGI: 629 nM
SF-295 CNS
  GI50: 443 nM
  TGI: 1120 nM
SF-539 CNS
  GI50: 165 nM
  TGI: 795 nM
SK-MEL-2 melanoma
  GI50: 103 nM
  TGI: 237 nM
SK-MEL-28 melanoma
  GI50: 218 nM
  TGI: 809 nM
SK-MEL-5 melanoma
  GI50: 552 nM
  TGI: 1170 nM
SK-OV-3 ovarian
  GI50: 244 nM
  TGI: 927 nM
SN12C renal
  GI50: 141 nM
  TGI: 609 nM
SNB-19 CNS
  GI50: 363 nM
  TGI: 2050 nM
SNB-75 CNS
  GI50: 182 nM
  TGI: 541 nM
SR leukemia
  GI50: 147 nM
  TGI: 517 nM
SW-620 colon
  GI50: 160 nM
  TGI: 599 nM
T-47D breast
  GI50: 355 nM
  TGI: 1430 nM
TK-10 renal
  GI50: 187 nM
  TGI: 570 nM
U251 CNS
  GI50: 251 nM
  TGI: 935 nM
UACC-257 melanoma
  GI50: 384 nM
  TGI: 1070 nM
UACC-62 melanoma
  GI50: 155 nM
  TGI: 717 nM
UO-31 renal
  GI50: 167 nM
  TGI: 558 nM

— PubChem BioAssay (NCI)
